Measurements published in paper PMC11294390 (Analytical and Bioanalytical Chemistry, 2024).
Where two headings read alike, the source gives them in different places.

Columns and labels:
HSA [1] = settings: equilibrium and dynamic dialysis; cited from earlier work
[2] = biological target: human serum albumin (HSA) (Homo sapiens, UniProt P02768); settings: for k (retention factor): Chiralpak HSA column, racemates
HSA Sudlow site I = biological target: T1, HSA Sudlow site I (Homo sapiens, UniProt P02768); experiment: Displacement chromatography (zonal elution) with warfarin as competitor; assay type: binding; settings: k decreases with rising warfarin, P < 0.05; 1/k vs competitor linear, positive slope
T1 construct: purchased Chiral Technologies Europe (Daicel Chemical Industries, Ltd., Osaka, Japan)

HSA [3] = settings: value in brackets; cited from earlier work
[4] = tested on: differentiated SH-SY5Y cells; settings: cited from earlier work
HSA [5] = tested on: HSA; design: method as in PMID 24666938; settings: HPAC, immobilized HSA column; cited from earlier work
human plasma proteins = settings: racemate incubated with plasma, ultrafiltration; cited from earlier work
HSA [6] = settings: cited from earlier work
bovine serum albumin = settings: spectroscopic technology; cited from earlier work
HSA [7] = settings: literature-reported; cited from earlier work
[8] = 100% potassium phosphate buffer 67 mM pH 7.0, 25 °C
[9] = from k by Eq. 4, 100% potassium phosphate buffer 67 mM pH 7.0, 25 °C

T1 sequence (P02768 25-609): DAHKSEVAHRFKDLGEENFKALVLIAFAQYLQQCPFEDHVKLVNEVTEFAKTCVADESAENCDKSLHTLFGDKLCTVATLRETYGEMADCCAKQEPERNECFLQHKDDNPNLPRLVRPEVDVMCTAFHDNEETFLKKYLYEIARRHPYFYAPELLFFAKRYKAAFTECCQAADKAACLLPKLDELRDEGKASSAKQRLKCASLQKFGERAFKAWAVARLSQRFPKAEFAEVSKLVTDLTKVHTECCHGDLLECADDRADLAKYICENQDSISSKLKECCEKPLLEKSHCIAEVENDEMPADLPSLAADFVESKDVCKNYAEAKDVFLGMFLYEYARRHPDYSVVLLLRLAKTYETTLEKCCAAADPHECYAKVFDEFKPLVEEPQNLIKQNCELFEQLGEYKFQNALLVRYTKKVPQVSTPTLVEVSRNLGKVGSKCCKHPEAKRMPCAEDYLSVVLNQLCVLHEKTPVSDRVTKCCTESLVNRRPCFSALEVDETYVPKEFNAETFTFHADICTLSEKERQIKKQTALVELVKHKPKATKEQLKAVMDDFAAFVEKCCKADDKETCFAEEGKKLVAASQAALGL
human serum albumin (HSA), sequence (P02768 25-609): as above

COc1ccc2c3c1O[C@H]1[C@@H](O)C=C[C@H]4[C@@H](C2)N(C)CC[C@@]341 [COD, codeine]
Binding percentage to HSA (HSA [1]): about 29% | k (retention factor) [2, 8]: 1.89 | Bound fraction (%b) to HSA [2, 9]: 65% | Competition with warfarin (site I) (HSA Sudlow site I): competition was also observed for both sites I and II

CN(C)CCCN1c2ccccc2Sc2ccc(Cl)cc21 [Chlorpromazine, chlorpromazine]
Bound fraction (%b) to HSA, literature value (HSA [3]): > 90% | Bound fraction (%b) to HSA, experimental, controls ([2]; human, pH 7): 98.1%

CNC(C)CN1c2ccccc2Sc2ccccc21 (stereo not shown) [DMPMZ, N-desmonomethyl promethazine]
Cytotoxicity [4]: even more cytotoxic than PMZ | k (retention factor) [2, 8]: 16.34 | Competition with warfarin (site I) (HSA Sudlow site I): also compete with warfarin and (S)-ibuprofen

Cc1ncc([N+](=O)[O-])n1CCO [Metronidazole, metronidazole]
Bound fraction (%b) to HSA, literature value (HSA [3]): 20.0% | Bound fraction (%b) to HSA, experimental, controls ([2]; human, pH 7): 19.8%

CC(CN1c2ccccc2Sc2ccccc21)N(C)C (stereo not shown) [PMZ, promethazine]
Association constant of binding to HSA (HSA [5]): 1.24 ± 0.14 × 10^4 M^−1 | Bound fraction (%b) to HSA [2, 9]: 98% | Enantioselective binding to human plasma proteins (human plasma proteins): evidence of the enantioselective binding | Association constant of binding to HSA (HSA [6]; fluorescence and adsorption spectroscopy): 1.57 ± 0.20 × 10^4 M^−1 | Binding site on HSA (HSA [6]; fluorescence spectroscopy): located in site I (subdomain IIA) | Binding constant to bovine serum albumin (bovine serum albumin): 1.40 ± 0.04 × 10^4 M^−1 | Competition with warfarin (site I) (HSA Sudlow site I): competes with warfarin

CC(CN1c2ccccc2[S+]([O-])c2ccccc21)N(C)C (stereo not shown) [PMZSO, promethazine sulphoxide]
k (retention factor) [2, 8]: 3.99 | Bound fraction (%b) to HSA ([2]; human, 50 µg/mL, pH 7): 80% | Competition with warfarin (site I) (HSA Sudlow site I): also compete with warfarin and (S)-ibuprofen

CC(=O)CC(c1ccccc1)c1c(O)c2ccccc2oc1=O (stereo not shown) [Warfarin, warfarin]
Affinity constant for HSA (HSA [7]): 330000 M⁻¹
